Structures are written as SMILES. Calls of active or inactive are those of the source. No cut-off for these calls is given here.

In one experiment the test system is PC-12. The experiment can be described thus: Cytotoxicity against rat PC12 cells assessed as inhibition of cell viability at 30 uM incubated for 24 hrs by MTT assay. The format is functional, cell-based. Background: Tetrazolium dyes change colour on reduction, which living cells bring about.
The subject of another experiment is SH-SY5Y. The experiment is described as follows: Cytotoxicity against human SH-SY5Y cells assessed as inhibition of cell viability at 100 uM incubated for 24 hrs by MTT assay. In kind it is functional, cell-based.

With `CC(C)C[C@H](NC(=O)OC(C)(C)C)C(=O)N[C@H](Cc1ccccc1)C(=O)N1CCC[C@H]1C(=O)N[C@H](C(=O)N[C@@H](CCCNC(=O)OCc1ccccc1)C(=O)O)C(C)C`, the outcome in the experiment with PC-12 was Active. The result in the experiment on SH-SY5Y was inactive. Turning to `C=CCc1ccc(OCCCNC(=O)[C@H](CCCNC(=O)OCc2ccccc2)NC(=O)[C@@H](NC(=O)[C@@H]2CCCN2C(=O)[C@@H](Cc2ccccc2)NC(=O)[C@H](CC(C)C)NC(=O)OC(C)(C)C)C(C)C)c(-c2ccc(OC)c(CC=C)c2)c1`, in the experiment on PC-12, the result was inactive. The same measure, in the same setting: the same measure for `C=CCc1ccc(OC)c(-c2ccc(OCCCNC(=O)[C@H](CCCNC(=O)OCc3ccccc3)NC(=O)[C@@H](NC(=O)[C@@H]3CCCN3C(=O)[C@@H](Cc3ccccc3)NC(=O)[C@H](CC(C)C)NC(=O)OC(C)(C)C)C(C)C)c(CC=C)c2)c1`: “inactive”.

(Values after ChEMBL document CHEMBL6109102, “Conjugation with the XJB peptide enhanced neuroprotective effect of honokiol via SIRT3 modulation” (Eur J Med Chem, 2025).)
